These results are taken from patent publication US6376511B2, “8-aminoquinolines” (The University of Mississippi, priority 1999, dated 2002).

Read-outs that look alike come from different tables or passages of the source.

Experiment [1] concerns Plasmodium berghei KBG-173. It counts as in vivo. As to conditions: for Parasitemia Day 6: percentage of red blood cells with parasites, control 31.8; for Mice surviving 60 days/Mice infected and treated: P. berghei in mice. On the procedure:
Blood Schizontocidal Test (Trophozoite-Induced Plasmodium berghei Infection in mice University of Miami, Test System: Thompson Test
Drugs were mixed in 0.5% hydroxycellulose 0.1% Tween 80 and administered orally b.i.d. on days 3, 4 and 5 postinfection. CD-1 male or female mice, 5 weeks of age, were infected with 5×10^4 parasitized erythrocytes of Plasmodium berghei KBG-173 mm strain. Blood films were taken on day +6 and weekly thereafter until day +60. Parasitemias were calculated and SD90 value (dose suppressing 90% of the parasites in treated groups compared with the infected non-treated controls) on day +6 postinfection. Mortality data was tabulated for 60 days at which time all mice surviving that were blood film negative were considered cured.
[…] The activity of these compounds were compared with the untreated control and “racemate” which is a mixture of equal amount of each enantiomer X and Y. In untreated controls, death occurs within 8-9 days. Compounds which are effective against Plasmodium berghei infection increase the mean survival time of the infected animals when compared with the untreated controls. Mice that survive after thirty days and are free of parasites in blood are considered cured.
Efficacy of the drug is determined by the number of cures at the end of a 30 day period and the increase in mean survival time over the control (ΔMST). The effect of the test drugs also could be determined by the reduction of the parasitemia (percentage of the red blood cells detected with the parasites) over the untreated control on day 6, one day after the treatment is completed. Both these methods yield virtually identical results. If the dose of test compounds are inadequate, after initial clearance, residual parasites will multiply and relapses will occur within thirty days. The blood schizontocidal activities (suppressive antimalarial) of X, Y, and racemate against P. berghei in mice are shown in Table 11.

For experiment [2], the system named is Plasmodium berghei KBG-173. As to the kind of experiment: Prophylactic test, Plasmodium berghei infection in mice, oral. It counts as in vivo. The conditions noted are these: single dose of 2 mg/kg. The source says:
CD-I male or female mice, 5 weeks of age, were infected with 5×10^4 parasitized erythrocytes ot Plasmodium berghei KBG-173 mm strain. Blood films were taken on day +6 and weekly thereafter until day+30. […]

Experiment [3] concerns Pneumocystis carinii. As to the kind of experiment: Anti-Pneumocystis carinii test (induced Pneumocystis carinii infection in immunosuppressed mice), oral. As to conditions: for Giemsa Stain Score / Silver stain Score / Giemsa Stain I/T (animals with organism after treatment/animals treated) / Silver stain I/T (animals with organism after treatment/animals treated): mice; for Giemsa Stain Score / Silver stain Score: mean score on 0 to 5+ scale; for Number of animals with organism after treatment/Number of animals treated, Giesma Stain: mice (Table 8). It counts as in vivo.

Experiment [4] has as its system trypanosome isolate EATRO Lab 110. As to the kind of experiment: Antitrypanosomal activity, trypanosome isolates grown as blood forms in HMI-18. It counts as cell-based, Trypanosoma. The conditions noted are these: EATRO Lab 110, after 48 h, 20% horse serum, read-out: IC50. How it is done:
(§1) Compounds were tested vs. trypanosome isolates grown as blood forms in HMI-18 (Hirumi H., Hirumi, K. 1989. Continuous Cuitivation of Trypanosoma brucei bloodstream forms in a medium containing a low concentration of serum portein without feeder cell layers. J. Parasitol. 75:985-989) containing 20% horse serum.

Experiment [5] deals with trypanosome isolate KETRI 269. Described as above. It counts as cell-based, Trypanosoma. The conditions noted are these: KETRI 269, after 48 h, 20% horse serum, read-out: IC50. On the procedure: as §1
For experiment [6], the system named is trypanosome isolate KETRI 243As103. The description is as above. It counts as cell-based, Trypanosoma. As to conditions: KETRI 243As103, after 48 h, 20% horse serum; succinate. How it is done:
as §1

Experiment [7] concerns trypanosome isolate KETRI 243. The experiment is described as above. It counts as cell-based, Trypanosoma. The conditions noted are these: KETRI 243, after 48 h, 20% horse serum; succinate; read-out: IC50. How it is done: as §1
Experiment [8] has as its system L. donovani Chagasi PP75. The experiment in a line: In vitro anti-Leishmania activity, Giemsa counts. It counts as cell-based. As to conditions: 1350 ng/mL; control 6.35.
For experiment [9], the system named is P. cynomolgi. The conditions noted are these: rhesus monkey, cited from earlier work.
The mark [10] stands for this setting: 0.25 mg/kg/day, 0.75 mg/kg total, succinate.
The mark [11] stands for this setting: 1 mg/kg/day, 3 mg/kg total, succinate.
The mark [12] stands for this setting: 4 mg/kg/day, 12 mg/kg total, succinate.
Where [13] appears, read: oral 0.25 mg/kg/day (x21), succinate, 0.25 mg/kg/day.
Setting [14] is: oral dose 1 mg/kg/day (total dose 3 mg/kg).
Setting [15] is: oral dose 4 mg/kg/day (total dose 12 mg/kg).
The mark [16] stands for this setting: oral dose 16 mg/kg/day (total dose 48 mg/kg).
Where [17] appears, read: oral dose 64 mg/kg/day (total dose 192 mg/kg).

A word on the IC50: it is the midpoint of a concentration-inhibition curve. On to `COc1cc(NC(C)CCCN)c2nccc(C)c2c1Oc1ccc(Cl)c(Cl)c1` (single isomer, unassigned; (+)) [X, (+) 8-[(4-amino-1-methylbutyl)amino]-5-(3,4-dichlorophenoxy)-6-methoxy-4-methylquinoline succinate], for which the figures for the “Parasitemia Day 6” value in [1] (setting [10]), in experiment [1] (setting [11]) and in experiment [1] (setting [12]) were 28.2, 27.4 and 1.1, respectively. In addition, the “Mice Alive Day 26” value in experiment [1] (setting [10]), in experiment [1] (setting [11]) and in [1] (setting [12]) was 0/5 each time. The “ΔMST (increase in mean survival time over the control)” value in [1] (setting [10]) worked out at 0 days; in [1] (1 mg/kg/day, 3 mg/kg total) it was 6 days; in experiment [1] (4 mg/kg/day, 12 mg/kg total) it was 11 days. For the same compound, the “Mice surviving day 60/Mice infected and treated” value in experiment [2] (day of treatment 2 (Table 5), listed as X Enantiomer, succinate, 2 mg/kg) is 0/5; in [2] (day of treatment -2 (Table 5), listed as X Enantiomer, succinate, 2 mg/kg) it was 0/5; in experiment [2] (day of treatment -3 (Table 5)), 0/5; in [2] (day of treatment -4 (Table 5)), 0/5; in experiment [2] (day of treatment -5 (Table 5)), 0/5. The “Giemsa Stain Score” value stood at 0.55 ± 0.16 in experiment [3] (setting [13]), 0.20 ± 0.10 in experiment [3] (oral 0.5 mg/kg/day (x21)), 0.0 in experiment [3] (oral 1 mg/kg/day (x21)) and 0.0 in [3] (oral 5 mg/kg/day (x21)). The “Silver stain Score” value in experiment [3] (setting [13]) came out at 1.15 ± 0.16; in experiment [3] (oral 0.5 mg/kg/day (x21)) it was 0.1 ± 0.1; in experiment [3] (oral 1 mg/kg/day (x21)), 0.0; in [3] (oral 5 mg/kg/day (x21)), 0.0. The “Giemsa Stain I/T (animals with organism after treatment/animals treated)” value in experiment [3] (setting [13]) is listed as 6/10; in experiment [3] (oral 0.5 mg/kg/day (x21)), 2/10; in [3] (oral 1 mg/kg/day (x21)), 0/10; in experiment [3] (oral 5 mg/kg/day (x21)), 0/10. The “Silver stain I/T (animals with organism after treatment/animals treated)” value in experiment [3] (setting [13]) was 10/10; in experiment [3] (oral 0.5 mg/kg/day (x21)) it was 2/10; in experiment [3] (oral 1 mg/kg/day (x21)) it was 0/10; in experiment [3] (oral 5 mg/kg/day (x21)), 0/10. For the same compound, the IC50 in experiment [4] (Trypanosoma, 48 h) was 8.3 µM; in experiment [5] (Trypanosoma, 48 h), 37 µM; in experiment [6], 36 µM; in experiment [7], 34 µM.

On to `COc1cc(NC(C)CCCN)c2nccc(C)c2c1Oc1ccc(Cl)c(Cl)c1` (single isomer, unassigned; (-)) [Y, (−)-8-[(4-amino-1-methylbutyl)amino]-5-(3,4-dichlorophenoxy)-6-methoxy-4-methylquinoline succinate], for which the entries for the “Parasitemia Day 6” value in experiment [1] (setting [10]), in experiment [1] (setting [11]) and in [1] (setting [12]) were 0.2, 0.0 and 0.0, respectively. For the same compound, the “Mice Alive Day 26” value in experiment [1] (setting [10]) is reported as 0/0; in [1] (setting [11]) it was 4/5; in experiment [1] (setting [12]), 5/5. Besides, the entries for the “ΔMST (increase in mean survival time over the control)” value in experiment [1] (setting [10]) and in [1] (setting [11]) were 11.6 days and 13.6 days, respectively. Moreover, the “Mice surviving day 60/Mice infected and treated” value in experiment [2] (day of treatment 2 (Table 5), listed as Y Enantiomer, succinate, 2 mg/kg) was 5/5; in experiment [2] (day of treatment -2 (Table 5), listed as Y Enantiomer, succinate, 2 mg/kg) it was 1/5; in experiment [2] (day of treatment -3 (Table 5)), 0/5; in experiment [2] (day of treatment -4 (Table 5)), 0/5; in experiment [2] (day of treatment -5 (Table 5)), 0/5. Further, the “activity in the mouse model of PCP, enantiomer comparison” value in [3] ((−) versus (+) enantiomer of DN3-27-1) was “significantly greater activity than the (+) enantiomer”. Moreover, the “Giemsa Stain Score” value in experiment [3] (setting [13]), in experiment [3] (oral 1 mg/kg/day (x21)) and in experiment [3] (oral 5 mg/kg/day (x21)) was 0.0 throughout. Besides, the “Silver stain Score” value in experiment [3] (setting [13]), in [3] (oral 1 mg/kg/day (x21)) and in experiment [3] (oral 5 mg/kg/day (x21)) was 0.0 in each case. For the same compound, the “Giemsa Stain I/T (animals with organism after treatment/animals treated)” value in experiment [3] (setting [13]), in [3] (oral 1 mg/kg/day (x21)) and in experiment [3] (oral 5 mg/kg/day (x21)) was 0/10 in each case. Besides, the “Silver stain I/T (animals with organism after treatment/animals treated)” value in [3] (setting [13]), in experiment [3] (oral 1 mg/kg/day (x21)) and in experiment [3] (oral 5 mg/kg/day (x21)) was 0/10 throughout. Moreover, the IC50 is 13.5 µM in experiment [4] (succinate), 27 µM in experiment [5] (succinate), 17.5 µM in experiment [6] and 11 µM in [7].

Consider `O=C1C(O)=C([C@H]2CC[C@H](c3ccc(Cl)cc3)CC2)C(=O)c2ccccc21` [Atovaquone, reference compound], for which, in experiment [8], the “Giemsa Counts” value worked out at 5.05 ± 0.21.

On to `CCCCCOc1c(OC)cc(NC(C)CCCN)c2nccc(C)c12` (stereo not shown) [Compound 4], for which the “Mice surviving 60 days/Mice infected and treated” value in experiment [1] (setting [14]) was 7/7; in [1] (setting [15]) it was 7/7; in experiment [1] (setting [16]), 4/7; in [1] (setting [17]) it was 0/7.

For `COc1cc(NC(C)CCCN)c2ncccc2c1` (stereo not shown) [Primaquine, reference compound], the “Mice surviving 60 days/Mice infected and treated” value is given as 0/7 in [1] (setting [14]), 0/7 in [1] (setting [15]), 1/7 in [1] (setting [16]) and 3/7 in experiment [1] (setting [17]). Also, the “Monkeys infected and treated/cured” value is recorded as 0/2 in experiment [9] (0.316 mg/kg/day x7, orally) and 1/2 in [9] (1.0 mg/kg/day x7, orally). Also, the “Number of animals with organism after treatment/Number of animals treated, Giesma Stain” value was 10/10 in experiment [3] (oral 5 mg/kg/day (x21), 5 mg/kg/day) and 5/10 in experiment [3] (oral 10 mg/kg/day (x21), 10 mg/kg/day).

As for `COc1cc(NC(C)CCCN)c2nccc(C)c2c1Oc1cccc(C(F)(F)F)c1` (stereo not shown) [WR-225,448, reference compound], the “Mice surviving 60 days/Mice infected and treated” value in experiment [1] (setting [14]) was 7/7; in experiment [1] (setting [15]), 7/7; in [1] (setting [16]), 7/7; in experiment [1] (setting [17]), 4/7.

Regarding `COc1cc(C)c2c(Oc3cccc(C(F)(F)F)c3)c(OC)cc(NC(C)CCCN)c2n1` (stereo not shown) [WR-238,605, reference compound], the “Mice surviving 60 days/Mice infected and treated” value in experiment [1] (setting [14]) is listed as 0/7; in experiment [1] (setting [15]) it was 1/7; in experiment [1] (setting [16]) it was 7/7; in [1] (setting [17]), 1/7.
